Laboratory results published in PubChem BioAssay (NCI).
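Assay format: 96-well plates, 48-hour exposure. Here, GI50 denotes the concentration required for 50% inhibition of growth. Definition used: TGI = concentration required for complete inhibition of growth.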

Tests used:
Experiment in all cases: NCI-60 cell line screen, 48 h
[1] = test system: ACHN renal
[2] = test system: CAKI-1 renal
[3] = test system: DU-145 prostate
[4] = test system: EKVX NSCLC
[5] = test system: HCC-2998 colon
[6] = test system: HCT-116 colon
[7] = test system: HOP-62 NSCLC
[8] = test system: HT29 colon
[9] = test system: M14 melanoma
[10] = test system: NCI-H226 lung
[11] = test system: NCI/ADR-RES ovarian
[12] = test system: OVCAR-8 ovarian
[13] = test system: PC-3 prostate
[14] = test system: RPMI-8226 leukemia
[15] = test system: SF-295 CNS
[16] = test system: SK-MEL-5 melanoma
[17] = test system: SNB-19 CNS
[18] = test system: UACC-257 melanoma
[19] = test system: UO-31 renal

Row | Compound | TGI [1] [µM] | TGI [2] [µM] | TGI [3] [µM] | TGI [4] [µM] | TGI [5] [µM] | TGI [6] [µM] | TGI [7] [µM] | TGI [8] [µM] | TGI [9] [µM] | TGI [10] [µM] | TGI [11] [µM] | TGI [12] [µM] | TGI [13] [µM] | TGI [14] [µM] | TGI [15] [µM] | TGI [16] [µM] | TGI [17] [µM] | TGI [18] [µM] | TGI [19] [µM] | GI50 [3] [µM]
1 | Nc1nc(Cl)cc(NCC2(CO)CC(CCCc3ccccc3)C2)n1 (centres undefined) | > 100 | > 100 | > 100 | > 100 | > 100 | > 100 | > 100 | > 100 | > 100 | > 100 | > 100 | > 100 | > 100 | > 100 | > 100 | > 100 | > 100 | > 93.7 | > 100 | 
2 | COc1ccc2c(c1)OCC1=C2Oc2ccccc2C1 | > 100 | > 100 | > 100 | > 100 | 54 | > 100 | > 100 | 90 | > 100 | > 100 | > 100 | > 100 | > 100 | > 100 | > 100 | 28.3 |  | 87.6 | > 100 | 
3 | O=C(O)COc1cc(-c2ccccc2F)nc2cc3c(cc12)OCO3 | > 100 | > 100 | > 100 | > 100 | > 100 | > 100 | > 100 | > 100 | > 100 | > 100 | > 100 | > 100 | > 100 | > 100 | > 100 | > 100 |  | > 100 |  | 
4 | Nc1c(C(=O)c2ccc(Cl)cc2)[nH]c(Nc2ccc(Cl)cc2)c1C(=S)Nc1ccccc1 | 5.08 | 23.2 | 24.1 | 19.5 | 7.7 | 13.4 | 20.5 | 18 | 34.1 | 19.4 | 13.3 | 11 | 41.2 | 56.3 | 5.87 |  | 21.8 | 31.8 | 15.1 | 
5 | O=C(O)c1[nH]c(=O)[nH]c(=O)c1CN1CCCCC1 | > 100 | > 100 | > 100 | > 100 | > 100 | > 100 | > 100 | > 100 | > 100 | > 100 | > 100 | > 100 | > 100 | > 100 | > 100 | > 100 | > 100 | > 100 | > 100 | 
6 | O=S(Nc1ccccc1)c1ccccc1Oc1ccccc1 (centres undefined) | > 100 | > 100 | > 100 | 79.1 | 87.1 | > 100 | > 100 | > 100 | > 100 | > 100 | > 100 | > 100 | > 100 | > 100 | > 100 | > 100 | > 100 | > 100 | > 100 | 
7 | CCOC(=O)c1ccc(OCc2nc3cc(C(F)(F)F)ccc3nc2-c2ccccc2)cc1 | > 100 | > 100 | > 100 | > 100 | > 100 | > 100 | > 100 | > 100 | > 100 | > 100 | > 100 | > 100 | > 100 | > 100 | > 100 | > 100 | > 100 | > 100 | > 100 | 
8 | O=[N+]([O-])c1ccc(CSc2c3ccccc3nc3ccccc23)cc1 | 12.9 | 29.6 | 5.92 | 34.7 | 32.7 | 7.14 | 35.7 | 6.36 | 16.6 | 35.8 | 52.1 | 10.8 | 20 | 9.29 | 41.7 | 30.5 | 37.4 | 10.5 | 17 | 
9 | CCCCC1CCCCCCc2[nH]c(/C=C3\N=C(c4ccc[nH]4)C=C3OC)cc21 (centres undefined) | 1.12 | 4.32 | 3.96 | 1.73 | 1.02 | 0.0531 | 0.94 | 1.11 |  | 3.27 | 0.806 | 1.33 | 2.09 | 0.226 | 1.17 | 0.107 | 8.65 | 2.73 | 0.071 | 
10 | COc1c(N2CCCCC2)c2c(=O)c3ccccc3oc2c2cc(C)oc12 | 53.7 | 37.3 | 77.5 | 89.1 | > 100 | 22.6 | > 100 | 38.6 | 53.6 | 45.4 | > 100 | > 100 | 51.5 | 50.3 | > 100 | 40.7 | > 100 | > 100 | 54 | 
11 | Nc1cc(N2CCOCC2)nc(=O)n1-c1ccccc1 | > 100 | > 100 | > 100 | > 100 | > 100 | > 100 | > 100 | > 100 | > 100 | > 100 | > 100 | > 100 | > 100 | > 100 | > 100 | > 100 | > 100 | > 100 | > 100 | 
12 | O=C1CC(C(O)C(O)C(O)CO)CC(=O)N1 (centres undefined) | > 100 | > 100 | > 100 | > 100 | > 100 | > 100 | > 100 | > 100 | > 100 | > 100 | > 100 | > 100 | > 100 | > 100 | > 100 | > 100 | > 100 | > 100 | > 100 | > 100
13 | CC(=O)NC1C(O)C(O)C(CO)OC1n1nc(SCc2ccccc2)c(=O)[nH]c1=O (centres undefined) | > 100 | > 100 | > 100 | > 100 | > 100 | > 100 | > 100 | > 100 | > 100 | > 100 | > 100 | > 100 | > 100 | > 100 | > 100 | > 100 | > 100 | > 100 | > 100 | 
14 | Clc1ccc(C2ON=C(c3ccccc3)N2C23CC4CC(CC(C4)C2)C3)cc1Cl (centres undefined) | > 10 | > 10 | > 10 | > 10 | > 10 | > 10 | > 10 | > 10 | > 10 | > 10 | > 10 | > 10 | > 10 | > 10 | > 10 | > 10 | > 10 | > 10 | > 10 | 
15 | COCn1c(=O)n(C)c(=O)c2c1nc1c(c(=O)n(C)c(=O)n1COC)[n+]2[O-] | 38 | 64.5 | 94.9 | 44.1 | 18.1 | 39.5 | 59.1 | > 100 | 43.9 | 40.8 | > 100 | 45.1 | 34.1 | 37.8 | 55.4 | 19.7 | > 100 | 54.8 | > 100 | 
16 | Cc1cccc(C)c1NC(=O)C(=O)C(c1ccccc1Cl)S(=O)(=O)Cc1ccccc1Cl (centres undefined) | > 100 | > 100 | > 100 | > 100 | > 100 | > 100 | 45.4 | > 100 | > 100 | > 100 | > 100 | > 69.6 | > 100 | > 100 | > 75.2 | > 100 | > 92 | > 100 | > 100 | 
17 | CCOc1cc(/C=N\O)cc(/C=N/O)c1O | 59.4 | 61.1 | > 100 | > 100 | > 100 | > 100 | > 100 | > 100 | > 100 | > 100 | > 100 | 66.6 | > 100 | > 100 | > 100 | 39.5 | > 100 | > 100 |  | 
18 | C=C1CC(COc2ccc3c(C)c(Cl)c(=O)oc3c2)(c2ccccc2)OC1=O (centres undefined) | 6.04 | 3.12 | 9.66 | 31.2 | 3.59 | 2.42 | 20.3 | 2.67 | 2.24 | 8.01 | 11.4 | 5.61 | 5.49 | 1.42 | 22.7 | 3.63 | 29.7 | 4.01 | 12.5 | 
19 | CCOP(=O)(OCC)c1cc2cc(O)ccc2oc1=O | > 100 | > 100 | > 100 | > 100 | > 100 | > 100 | > 100 | > 100 | > 100 | > 100 | > 100 | > 100 | > 100 | > 100 | > 100 | > 100 | > 100 | > 100 | 0.151 | 
20 | O=S(=O)(Nc1nc2ccccc2nc1Nc1cccc2ccccc12)c1ccccc1 | > 100 | > 100 | > 100 | > 100 | > 100 | > 100 | 33 |  | > 100 | > 100 | > 100 | > 100 | > 100 | > 100 | > 100 | > 100 | 61.2 | > 100 | > 100 | 
21 | CSC1=NC(=O)CCN1C1OCC(OC(C)=O)C(OC(C)=O)C1OC(C)=O (centres undefined) | > 31.6 | > 31.6 | > 31.6 | > 31.6 | > 31.6 | > 31.6 | > 31.6 | > 31.6 |  | > 31.6 | > 31.6 | > 31.6 | > 31.6 | > 31.6 | > 31.6 | 17.9 | > 31.6 | > 31.6 | 57.8 | 
22 | O=c1oc2cc(O)ccc2c(O)c1C(c1ccc2ccccc2c1)c1c(O)c2ccc(O)cc2oc1=O |  | > 100 | > 100 | > 100 | > 100 | > 100 | > 100 | > 100 | > 100 | > 100 | > 100 | > 100 | > 100 | 85.2 | > 100 | > 100 | 49.3 | > 100 | 31.7 | 
23 | O=C1c2ccccc2-c2nc(-c3cccs3)cc3c2c1nc1ccccc13 | > 100 | > 100 | 31 | > 100 | 68 | 42.2 | 77.6 | 62.6 | 18.3 | > 100 | > 100 | > 100 | > 100 | > 100 | > 100 |  | > 100 | 37.3 | > 100 | 
24 | C=CC(C)CCC(C/C=C(\C)CCCC(C)C)C(=C)CCCC(C)C (centres undefined) | > 100 | > 100 | > 100 | > 100 | > 100 | > 100 | > 100 |  | > 100 | > 100 | > 100 | > 100 | > 100 | > 100 | > 100 | > 100 | > 100 | > 100 | > 100 | 
25 | CCCCCCCCCCCCCCCCC(=O)NCC(=O)NCC(=O)NC(Cc1ccccc1)C(=O)Oc1ccc([N+](=O)[O-])cc1 (centres undefined) | > 100 | 32.2 | > 100 | > 100 | 37.3 | 32.6 | > 100 | 88 | 41.1 | 70 | 42.9 | 38.7 | 86.6 | 58.2 | 40.4 | 47.4 |  | 57.4 | > 100 | 
